Assay results as given in patent US11452731B2, “Method of treating and preventing loss of cognition” (ENDORECHERCHE, INC., priority 2009, dated 2022).
Several values for one entry are separate records, joined by “and”; a condition that tells them apart may be missing. Equal values may be shown once. Marks after values point to notes of the source that are not given here.

Experiments:
[1] = 12-week oral EM-800 (0.5 mg/kg) in intact rats: serum 17β-estradiol, mammary gland and endometrium histology; assay type: in vivo, rat; conditions: 12 weeks
Procedure: The lobules (L) consist of a few alveoli. Insert. High magnification showing alveoli. • b) Animal treated with EM-800 (0.5 mg/kg, b w per day) for 12 weeks. […] Insert. High magnification showing atrophied alveolar cells.
The luminal epithelium (LE) is characterized by columnar epithelial cells while the glandular epithelium (GE) is rather cuboidal. The stroma contains several cellular elements and collagen fibers. • b) Animal treated with EM-800 (0.5 mg/kg, b w per day) during 12 weeks. […] The glandular epithelial cells have unstained cytophasm with no sign of activity. The stroma is highly cellular due to reduction in intercellular elements of the stroma.

[2] = 12-month treatment of ovariectomized rats with DHEA alone or with Flutamide or EM-800: bone histomorphometry, bone markers, serum lipids; assay type: in vivo, rat; conditions: added to DHEA, OVX rats, 12 months
[3] = Uterine, vaginal and body weight in estrone-supplemented OVX nude mice (Example 1); assay type: in vivo; conditions: E1-supplemented
Procedure: DHEA was dissolved in 50% ethanol 50% propylene glycol. […] Tumors were measured once a week with Vernier calipers.

[4] = system: ZR-75-1 human breast cancer xenografts; assay: Growth and response of human ZR-75-1 breast tumor xenografts in estrone-supplemented OVX nude mice, DHEA and/or EM-800 for 9.5 months (Example 1); assay type: in vivo; conditions: 9.5 months; for Category of response: Complete (%) / Category of response: Complete (Number) / Category of response: Partial (%) / Category of response: Partial (Number) / Category of response: Progression (%) / Category of response: Progression (Number) / Category of response: Stable (%) / Category of response: Stable (Number) / Average tumor weight at end of experiment: E1-supplemented
[5] = 9-month treatment with DHEA and/or EM-800 in the rat: urinary and serum markers of bone metabolism; assay type: in vivo
Source text: It is particularly important to indicate that the combination of DHEA and EM-800 exerted unexpected beneficial effects on important biochemical parameters of bone metabolism. […] Moreover, no effect of DHEA could be detected on daily urinary calcium or phosphorus excretion (Luo et al., 1997). EM-800 decreased the urinary hydroxyproline/creatinine ratio by 48% while, similarly to DHEA, no effect of EM-800 was seen on urinary calcium or phosphorus excretion. EM-800, moreover, had no effect on serum alkaline phosphatase activity, a marker of bone formation while DHEA increased the value of the parameter by about 75% (Luo et al., 1997).

[6] = system: ZR-75-1 human breast cancer xenografts; assay: Growth and response of human ZR-75-1 breast tumors in OVX nude mice, 7 antiestrogens for 161 days with or without estrone (Example 8); assay type: in vivo
Procedure: ZR-75-1 human breast cancer cells were obtained from the American Type Culture Collection (Rockville, Md.) and cultured in phenol red-free RPMI-1640 medium. […] (Saint-Constant, Québec, Canada). The mice (5 per cage) were housed in vinyl cages equipped with air filter lids, which were kept in laminar airflow hoods and maintained under pathogen-limiting conditions. The photoperiod was 12 hours of light and 12 hours of darkness (lights on at 07:15). Cages, bedding and food (Agway Pro-Lab R-M-H Diet #4018) were autoclaved before use. Water was autoclaved and provided ad libitum. Bilateral ovariectomy was performed under isoflurane-induced anesthesia. […] Randomization and treatments were started one week later. […] The estrone implants were then removed from the animals in the ovariectomized control group (OVX) and in groups that were to receive the antiestrogen alone. […] Tamoxifen was purchased from […]) while toremifene citrate was purchased from Orion (Espoo, Finland). […] The antiestrogen suspensions at the appropriate concentration were prepared each month, stored at 4° C. and used under constant agitation. Powder stock were hermetically stored at 4° C. […] Two perpendicular diameters were recorded and tumor area (mm2) was calculated using the formula: […] Tumor response was assessed at the end of the study or at death of each animal, if it occurred during the course of the experiment. In this case, only data of mice that survived for at least half of the study ([…]) were used in the tumor response analysis.

[7] = Endometrial epithelium thickness in OVX nude mice after 161 days of antiestrogen (Example 8); assay type: in vivo
Source text: The 17 groups included two control groups (OVX and OVX+Estrone), seven groups supplemented with an estrone implant and treated with an antiestrogen and eight other groups that received an antiestrogen alone. The estrone implants were then removed from the animals in the ovariectomized control group (OVX) and in groups that were to receive the antiestrogen alone. […] Tamoxifen was purchased from […]) while toremifene citrate was purchased from Orion (Espoo, Finland). […] The antiestrogen suspensions at the appropriate concentration were prepared each month, stored at 4° C. and used under constant agitation. Powder stock were hermetically stored at 4° C. […] After 161 days of treatment, the remaining animals were anesthetized with isoflurane and killed by exsanguination. […] The uteri were prepared to evaluate endometrial thickness by image analysis performed with Image Pro-Plus (Media Cybernetics, Maryland, USA). […] Hematoxylin- and eosin-stained sections of mice uteri were analyzed. […] Mean epithelial cell height was measured in all animals of each group.

[8] = system: ZR-75-1 human breast cancer xenografts; assay: Tamoxifen and EM-652.HCl alone or combined on growth of ZR-75-1 xenografts in nude mice (FIG. 7); assay type: in vivo; conditions: ZR-75-1 xenografts in nude mice
[9] = set-up: species or system Long-Evans rats; conditions: rat, in vivo
Source text: For comparison purposes, values for the blood, plasma, liver (Table 13) and uterus from each of these animals were included.

[10] = EM-800 15 μg, or EM-800 15 μg + DHEA 0.3 mg
[11] = EM-800 50 μg, or EM-800 15 μg + DHEA 1.0 mg
[12] = EM-800 100 μg, or EM-800 15 μg + DHEA 3.0 mg
[13] = DHEA 0.3 mg, EM-800 15 μg, or EM-800 15 μg + DHEA 0.3 mg
[14] = DHEA 1.0 mg, EM-800 50 μg, or EM-800 15 μg + DHEA 1.0 mg
[15] = DHEA 3.0 mg, EM-800 100 μg, or EM-800 15 μg + DHEA 3.0 mg
[16] = DHEA 10 mg, EM-800 75 μg, alone or combined
[17] = absence of estrone, 200 μg daily, 161 days
[18] = estrone-supplemented, 50 μg daily, 161 days

CC1=C(c2ccc(OC(=O)C(C)(C)C)cc2)[C@H](c2ccc(OCCN3CCCCC3)cc2)Oc2cc(OC(=O)C(C)(C)C)ccc21 [EM-800, (+)-7-pivaloyloxy-3-(4′-pivaloyloxyphenyl)-4-methyl-2-(4″-(2′″-piperidi-noethoxy)phenyl)-2H-benzopyran]
elevation of circulating 17β-estradiol versus intact animals ([1]; EM-800 0.5 mg/kg orally daily): 50%
effect on the endometrium (histology) ([1]; EM-800 0.5 mg/kg): marked atrophy
effect on the mammary gland (histology) ([1]; EM-800 0.5 mg/kg): marked atrophy
circulating levels of 17β-estradiol ([1]; intact rats, EM-800 0.5 mg/kg orally daily): 143.5 ± 7.8 pg/mL
reversal of the stimulatory effect of DHEA on serum alkaline phosphatase [2]: no significant effect
UTERINE WEIGHT [3, 10]: 49 ± 3 mg
VAGINAL WEIGHT [3, 10]: 23 ± 1 mg
UTERINE WEIGHT [3, 11]: 36 ± 2 mg
VAGINAL WEIGHT [3, 11]: 15 ± 1 mg
UTERINE WEIGHT [3, 12]: 32 ± 1 mg
VAGINAL WEIGHT [3, 12]: 11 ± 1 mg
Inhibition of estrone-stimulated ZR-75-1 tumor size ([4]; daily DHEA 0.3 mg or EM-800 15 μg): 88% and 87.5%
Inhibition of estrone-stimulated ZR-75-1 tumor size ([4]; daily DHEA 1.0 mg or EM-800 50 μg): 93% and 93.5%
Inhibition of estrone-stimulated ZR-75-1 tumor size ([4]; daily DHEA 3.0 mg or EM-800 100 μg): 94%
Category of response: Complete (%) [4, 13]: 29.4%
Category of response: Complete (Number) [4, 13]: 5
Category of response: Partial (%) [4, 13]: 5.9%
Category of response: Partial (Number) [4, 13]: 1
Category of response: Progression (%) [4, 13]: 35.3%
Category of response: Progression (Number) [4, 13]: 6
Category of response: Stable (%) [4, 13]: 29.4%
Category of response: Stable (Number) [4, 13]: 5
Category of response: Complete (%) [4, 14]: 25.0%
Category of response: Complete (Number) [4, 14]: 4
Category of response: Partial (%) [4, 14]: 18.8%
Category of response: Partial (Number) [4, 14]: 3
Category of response: Progression (%) [4, 14]: 25.0%
Category of response: Progression (Number) [4, 14]: 4
Category of response: Stable (%) [4, 14]: 31.2%
Category of response: Stable (Number) [4, 14]: 5
Category of response: Complete (%) [4, 15]: 50.0%
Category of response: Complete (Number) [4, 15]: 8
Category of response: Partial (%) [4, 15]: 0 (0) %
Category of response: Partial (Number) [4, 15]: 0 (0)
Category of response: Progression (%) [4, 15]: 31.2%
Category of response: Progression (Number) [4, 15]: 5
Category of response: Stable (%) [4, 15]: 18.8%
Category of response: Stable (Number) [4, 15]: 3
Average tumor weight at end of experiment ([4]; daily DHEA 0.3 mg, EM-800 15 μg, or EM-800 15 μg + DHEA 0.3 mg): 0.08 ± 0.03 g
Average tumor weight at end of experiment ([4]; daily DHEA 1.0 mg, EM-800 50 μg, or EM-800 15 μg + DHEA 1.0 mg): 0.03 ± 0.01 g
Average tumor weight at end of experiment ([4]; daily DHEA 3.0 mg, EM-800 100 μg, or EM-800 15 μg + DHEA 3.0 mg): 0.04 ± 0.03 g
decrease of urinary hydroxyproline/creatinine ratio (marker of bone resorption) [5]: 48%
effect on daily urinary calcium or phosphorus excretion [5]: no effect
increase of serum alkaline phosphatase activity (marker of bone formation) [5]: no effect
Serum tALP [5, 16]: 114.11 ± 11.26 IU/L
Urine HP/Cr [5, 16]: 6.81 ± 0.84 μmol/mmol
Urine calcium [5, 16]: 17.44 ± 4.5 μmol/24 h/100 g
Urine phosphorus [5, 16]: 102.03 ± 25.13 μmol/24 h/100 g

CC/C(=C(\c1ccccc1)c1ccc(OCCN(C)C)cc1)c1ccccc1 [Tamoxifen, (Z)-2-[4-(1,2-diphenyl-1-butenyl)phenoxy]-N,N-dimethylethanamine]
increase of average tumor size over baseline (agonistic effect) [6, 17]: 196%
tumors in the progression category, % [6, 17]: 62%
tumors in the progression category, number of total [6, 17]: 16 of 26
average tumor size above pretreatment values ([6]; estrone-stimulated, 50 μg oral daily, 23 weeks): 87%
progressing tumors, % of tumors [6, 18]: 65%
progressing tumors, number of total [6, 18]: 17 of 26
inhibition of the stimulatory effect of estrone on epithelial height ([7]; 50 μg daily oral, estrone stimulation): 32%
height of uterine epithelial cells, % of the OVX control group value ([7]; 200 μg daily, absence of estrone): 155%
ENDOMETRIAL EPITHELIUM THICKNESS (μm) ± SEM ([7]; OVX + E1, antiestrogen 50 μg daily): 33.44^b,d ± 0.04 μm
ENDOMETRIAL EPITHELIUM THICKNESS (μm) ± SEM ([7]; OVX without E1, antiestrogen 200 μg daily): 28.47^b,d ± 0.05 μm
stimulatory effect on tumor growth [8]: approximately 100%

CC1=C(c2ccc(O)cc2)[C@H](c2ccc(OCCN3CCCCC3)cc2)Oc2cc(O)ccc21 [EM-652]
accessibility to the CNS [9]: very poor accessibility
